These results are taken from ChEMBL document CHEMBL3407370, “Potent acetylcholinesterase inhibitors: design, synthesis, biological evaluation, and docking study of acridone linked to 1,2,3-triazole derivatives” (Eur J Med Chem, 2015).

A value given as a limit tells only on which side of the number the result lay.

In data set [1] the target is Acetylcholinesterase (Electrophorus electricus, UniProt O42275). In words: Inhibition of electric eel acetylcholinesterase using acetylthiocholine iodide as substrate after 15 mins by Ellman's method. On the technique in general: DTNB colorimetry detects thiols as they appear.
Data set [2] addresses Cholinesterase (Equus caballus, UniProt P81908). As to the kind of experiment: Inhibition of equine serum butylcholinesterase using acetylthiocholine iodide as substrate after 15 mins by Ellman's method.
Data set [3] in a line: Antioxidant activity assessed as DPPH radical scavenging activity incubated in dark condition measured after 30 mins by UV/vis spectrophotometric analysis. It counts as physicochemical. Background: DPPH is a stable violet radical that fades when it is reduced.
A short description of data set [4]: Antioxidant activity assessed as DPPH radical scavenging activity at 700 ug/ml incubated in dark condition measured after 30 mins by UV/vis spectrophotometric analysis relative to control. Type of data set: physicochemical. The note with it: 0.5 h.

Chain of Acetylcholinesterase (O42275 whole entry): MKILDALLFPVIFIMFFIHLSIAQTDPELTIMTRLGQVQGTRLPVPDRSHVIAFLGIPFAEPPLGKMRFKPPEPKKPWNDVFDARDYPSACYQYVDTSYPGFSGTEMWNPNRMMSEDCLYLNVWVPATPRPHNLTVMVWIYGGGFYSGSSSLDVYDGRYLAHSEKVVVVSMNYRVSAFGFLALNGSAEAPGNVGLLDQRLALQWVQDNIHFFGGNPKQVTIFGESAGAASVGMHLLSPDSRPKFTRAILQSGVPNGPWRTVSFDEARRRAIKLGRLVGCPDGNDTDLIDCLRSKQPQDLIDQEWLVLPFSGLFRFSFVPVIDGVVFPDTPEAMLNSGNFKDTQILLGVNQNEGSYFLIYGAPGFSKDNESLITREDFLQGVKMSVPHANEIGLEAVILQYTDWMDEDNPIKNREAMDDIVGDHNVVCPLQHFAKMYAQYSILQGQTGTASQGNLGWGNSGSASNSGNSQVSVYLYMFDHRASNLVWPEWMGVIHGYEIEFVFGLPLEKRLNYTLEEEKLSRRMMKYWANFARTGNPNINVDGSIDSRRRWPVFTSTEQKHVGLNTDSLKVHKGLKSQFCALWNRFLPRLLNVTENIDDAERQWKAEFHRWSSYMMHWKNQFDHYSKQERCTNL
Chain of Cholinesterase (P81908 whole entry): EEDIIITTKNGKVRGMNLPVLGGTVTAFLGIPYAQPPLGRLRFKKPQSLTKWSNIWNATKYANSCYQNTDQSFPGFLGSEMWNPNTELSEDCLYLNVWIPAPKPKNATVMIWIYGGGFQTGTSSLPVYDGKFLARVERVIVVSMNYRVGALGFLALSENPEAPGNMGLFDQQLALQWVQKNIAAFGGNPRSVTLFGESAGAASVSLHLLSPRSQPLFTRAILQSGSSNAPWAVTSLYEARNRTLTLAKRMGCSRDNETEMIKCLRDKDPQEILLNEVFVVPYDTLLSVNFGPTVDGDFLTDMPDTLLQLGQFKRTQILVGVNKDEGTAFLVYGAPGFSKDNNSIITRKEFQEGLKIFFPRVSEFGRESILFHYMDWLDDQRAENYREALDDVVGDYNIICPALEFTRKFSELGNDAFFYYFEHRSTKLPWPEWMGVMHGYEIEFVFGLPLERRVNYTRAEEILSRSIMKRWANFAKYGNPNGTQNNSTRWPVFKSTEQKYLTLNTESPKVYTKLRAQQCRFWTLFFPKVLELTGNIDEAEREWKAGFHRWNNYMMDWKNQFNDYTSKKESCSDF

As for `O=c1c2ccccc2n(Cc2cn(Cc3ccccc3)nn2)c2ccccc12`, the IC50 in data set [1] and in data set [2] was at least 100 µM throughout.

With `O=c1c2ccccc2n(Cc2cn(Cc3ccc(Cl)cc3)nn2)c2ccccc12`, the EC50 in data set [3] was above 333 µg/mL. Also, the IC50 in data set [1] was 59.7 µM; in data set [2], at least 100 µM. Also, the “inhibition (INH)” value in data set [4] is 21.78%.

For `O=c1c2ccccc2n(Cc2cn(Cc3ccccc3)nn2)c2ccc(Cl)cc12`, the EC50 in data set [3] is above 700 µg/mL. Moreover, the IC50 is 88.1 µM in data set [1] and at least 100 µM in data set [2]. In addition, the “inhibition (INH)” value in data set [4] was 26.6%.

Regarding `O=c1c2ccccc2n(Cc2cn(Cc3ccc(Cl)cc3)nn2)c2ccc(Cl)cc12`, the IC50 in data set [1] is 17.7 µM; in data set [2] it was at least 100 µM.

With `O=c1c2ccccc2n(Cc2cn(Cc3ccc([N+](=O)[O-])cc3)nn2)c2ccc(Cl)cc12`, the IC50 in data set [1] was 38.3 µM; in data set [2], at least 100 µM.

For `COc1ccc2c(c1)c(=O)c1ccccc1n2Cc1cn(Cc2ccccc2)nn1`, the EC50 in data set [3] was above 700 µg/mL. Further, the IC50 in data set [1] was 24 µM; in data set [2], at least 100 µM. Besides, in data set [4], the “inhibition (INH)” value is 8.65%.

As for `COc1ccc2c(c1)c(=O)c1ccccc1n2Cc1cn(Cc2ccc(Cl)cc2)nn1`, the IC50 is 7.31 µM in data set [1] and at least 100 µM in data set [2].

`O=c1c2ccccc2n(Cc2cn(Cc3ccccc3)nn2)c2ccc(Br)cc12`: the half-inhibitory concentration (IC50) in data set [1] was 68.1 µM; in data set [2] it was at least 100 µM.

For `O=c1c2ccccc2n(Cc2cn(Cc3ccc(Cl)cc3)nn2)c2ccc(Br)cc12`, the IC50 in data set [1] is 45.6 µM; in data set [2] it was at least 100 µM.

Turning to `O=c1c2ccccc2n(Cc2cn(Cc3ccc([N+](=O)[O-])cc3)nn2)c2ccc(Br)cc12`, the IC50 was 52.8 µM in data set [1] and at least 100 µM in data set [2].

For the compound `Cc1ccc2c(c1)c(=O)c1ccccc1n2Cc1cn(Cc2ccccc2)nn1`, the EC50 in data set [3] was above 333 µg/mL. In addition, the concentration for half-maximal inhibition (IC50) in data set [1] and in data set [2] was at least 100 µM in each case. In data set [4], the “inhibition (INH)” value was determined as 7.09%.

For `Cc1ccc2c(c1)c(=O)c1ccccc1n2Cc1cn(Cc2ccc(Cl)cc2)nn1`, the half-maximal inhibitory concentration (IC50) in data set [1] was 10.8 µM; in data set [2] it was 87.2 µM.

Regarding `O=c1c2ccccc2n(Cc2cn(Cc3ccccc3)nn2)c2c(F)cccc12`, the EC50 in data set [3] is above 700 µg/mL. For the same compound, the IC50 in data set [1] and in data set [2] was at least 100 µM each time. Further, in data set [4], the “inhibition (INH)” value is listed as 14.79%.

Regarding `O=c1c2ccccc2n(Cc2cn(Cc3ccc(Cl)cc3)nn2)c2c(F)cccc12`, the IC50 in data set [1] is 24.5 µM; in data set [2], at least 100 µM.

A word on the IC50: it is the concentration that inhibits the measured activity by half. A high value points to weaker potency in that assay. The EC50 is the concentration needed to bring the measured effect to its halfway point.
